Laboratory results published in US8030543B2, “Efficient transformation method for sunflower and oil seeds based on positive selection” (Avesthagen Limited, priority 2006, dated 2011).

Key:
[1] = test system: Helianthus annuus CMS234B split embryonic axis (SEA) explants; assay: Positive selection and regeneration of sunflower SEA explants transformed with pCAMBIA-XI on media containing Xylose; format: cell-based; conditions: for No of PCR +ve explants / No. of explants Regenerating into shootlets / No. of explants surviving I selection (15 days) / No. of explants surviving I selection (21 days) / No. of explants surviving II selection (15 days) / PCR +ve Regenerants: 100 explants infected, pCAMBIA-XI
Method: The seeds were sterilized and the split embryonic axis isolated as described earlier. […] Agrobacterium cells from the glycerol stock were grown overnight in Luria-Bertani (LB) medium containing Rifampicin (10 μg/ml), Gentamycin (10 μg/ml) and Kanamycin (50 μg/ml) and grown exponentially for a period of 4-6 hrs to reach O.D600=1.0. The cells were centrifuged at 6000 rpm for 5 min at 4° C. and then washed and resuspended in MS liquid to reach an O.D600 of 1.0. The excised explants were immediately transferred to a vacuum infiltration flask containing 25 ml of the resuspended culture. Vacuum at 200 atm pressure for 15 min was applied and quickly released. The culture was then drained off completely and explants collected on a blotting paper. […] After two days of co-cultivation, the explants were washed thoroughly with Murashige and Skoog (1972) liquid medium containing Cefotaxime 250 mg/l. […] After the selection period the shoots were subcultured onto Elongation medium containing ½ Strength MS medium. […] The explants surviving first selection were transferred for a second selection to the same medium for 21 days. Explants were subsequently transferred to their respective elongation media. Healthy shootlets were transferred to their respective rooting media.

[2] = test system: sunflower CMS234B SEA explants; assay: Screening for capability to utilize xylose as carbon source (untransformed SEA explants); format: cell-based, Helianthus annuus; conditions: MS medium with 0.5 mg/l BAP, 3% Xylose as carbon source
Method: In order to determine if sunflower is capable of using xylose as the carbon source, explants were cultured on regeneration media containing sucrose and xylose respectively.

O=C[C@H](O)[C@@H](O)[C@H](O)CO [Xylose, D-Xylose]
No of PCR +ve explants ([1]; Xylose Conc. 15 (mg/l)): 28
No. of explants Regenerating into shootlets ([1]; Xylose Conc. 15 (mg/l)): 20
No. of explants surviving I selection (15 days) ([1]; Xylose Conc. 15 (mg/l)): 80
No. of explants surviving I selection (21 days) ([1]; Xylose Conc. 15 (mg/l)): 70
No. of explants surviving II selection (15 days) ([1]; Xylose Conc. 15 (mg/l)): 60
PCR +ve Regenerants ([1]; Xylose Conc. 15 (mg/l)): 10
No of PCR +ve explants ([1]; Xylose Conc. 20 (mg/l)): 30
No. of explants Regenerating into shootlets ([1]; Xylose Conc. 20 (mg/l)): 12
No. of explants surviving I selection (15 days) ([1]; Xylose Conc. 20 (mg/l)): 72
No. of explants surviving I selection (21 days) ([1]; Xylose Conc. 20 (mg/l)): 65
No. of explants surviving II selection (15 days) ([1]; Xylose Conc. 20 (mg/l)): 57
PCR +ve Regenerants ([1]; Xylose Conc. 20 (mg/l)): 7
No of PCR +ve explants ([1]; Xylose Conc. 25 (mg/l)): 28
No. of explants Regenerating into shootlets ([1]; Xylose Conc. 25 (mg/l)): 7
No. of explants surviving I selection (15 days) ([1]; Xylose Conc. 25 (mg/l)): 65
No. of explants surviving I selection (21 days) ([1]; Xylose Conc. 25 (mg/l)): 55
No. of explants surviving II selection (15 days) ([1]; Xylose Conc. 25 (mg/l)): 40
PCR +ve Regenerants ([1]; Xylose Conc. 25 (mg/l)): 6
No of PCR +ve explants ([1]; Xylose Conc. 30 (mg/l)): 18
No. of explants Regenerating into shootlets ([1]; Xylose Conc. 30 (mg/l)): 5
No. of explants surviving I selection (15 days) ([1]; Xylose Conc. 30 (mg/l)): 50
No. of explants surviving I selection (21 days) ([1]; Xylose Conc. 30 (mg/l)): 38
No. of explants surviving II selection (15 days) ([1]; Xylose Conc. 30 (mg/l)): 20
PCR +ve Regenerants ([1]; Xylose Conc. 30 (mg/l)): 5
green tissue of plantlets ([1]; plantlets grown on D-Xylose medium, compared to plantlets grown on Hygromycin): 90%
healthy shoots per explants ([1]; positive selection on Xylose): 2-3
time within which explants brown and die [2]: 2-3 weeks
